Assays:
PC3 cells = test: EB1 Comet (microtubule disruption) assay; assay type: cell-based, human; details: 1 hour treatment; for minimal effective concentration: Homo sapiens, PC-3, 1 h, read-out: EB1 pLAC (converted)
Method in brief: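 PC3 human prostate cancer cells exposed to compound for 1 h at 37 °C (0.6% DMSO final), methanol-fixed, immunostained for Eb1 and imaged at 20×. Value is the lowest active concentration (LAC): the concentration at which Eb1 foci are absent in at least 50% of treated cells.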

TANK-2 enzyme = target: T1, TANK-2 enzyme (Homo sapiens, UniProt Q9H2K2); test: In vitro Scintillation Proximity Assay (SPA) for TANK-2 inhibitory activity; assay type: biochemical; details: read-out: in vitro SPA assay TANK-2 pIC50 (converted)
T1 construct: made in house
T1 sequence (Q9H2K2 1-1166): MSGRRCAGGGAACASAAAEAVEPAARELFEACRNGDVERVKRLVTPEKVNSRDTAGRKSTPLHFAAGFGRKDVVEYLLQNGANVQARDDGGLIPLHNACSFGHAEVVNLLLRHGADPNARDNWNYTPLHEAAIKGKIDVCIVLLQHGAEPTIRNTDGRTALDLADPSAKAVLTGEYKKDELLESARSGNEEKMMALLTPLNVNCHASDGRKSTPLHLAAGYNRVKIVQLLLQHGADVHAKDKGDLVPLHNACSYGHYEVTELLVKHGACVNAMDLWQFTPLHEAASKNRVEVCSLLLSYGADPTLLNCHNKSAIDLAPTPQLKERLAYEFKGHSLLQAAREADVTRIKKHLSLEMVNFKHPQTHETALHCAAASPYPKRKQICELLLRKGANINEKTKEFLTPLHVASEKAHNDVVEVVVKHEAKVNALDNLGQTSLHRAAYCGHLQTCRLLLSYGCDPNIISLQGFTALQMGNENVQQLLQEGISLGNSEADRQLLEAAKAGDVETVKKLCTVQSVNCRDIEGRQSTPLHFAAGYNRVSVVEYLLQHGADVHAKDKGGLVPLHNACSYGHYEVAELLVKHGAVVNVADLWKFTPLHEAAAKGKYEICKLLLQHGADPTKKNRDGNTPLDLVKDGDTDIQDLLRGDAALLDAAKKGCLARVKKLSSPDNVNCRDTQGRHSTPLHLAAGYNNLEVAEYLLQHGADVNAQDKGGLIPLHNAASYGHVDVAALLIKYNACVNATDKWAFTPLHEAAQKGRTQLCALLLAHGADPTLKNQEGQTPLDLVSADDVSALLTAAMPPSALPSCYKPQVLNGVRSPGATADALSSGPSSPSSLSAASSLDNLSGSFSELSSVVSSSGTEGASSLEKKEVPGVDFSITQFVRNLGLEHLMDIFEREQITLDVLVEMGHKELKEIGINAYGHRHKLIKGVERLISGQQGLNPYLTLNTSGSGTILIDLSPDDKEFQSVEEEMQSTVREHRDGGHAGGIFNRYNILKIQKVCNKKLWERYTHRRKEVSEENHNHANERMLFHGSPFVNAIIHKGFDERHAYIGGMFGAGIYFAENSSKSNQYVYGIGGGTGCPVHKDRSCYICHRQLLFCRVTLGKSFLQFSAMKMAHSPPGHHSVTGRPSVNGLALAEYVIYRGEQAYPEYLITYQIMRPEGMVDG
Method in brief: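 TANK-2 (8 μg/ml final) auto-poly(ADP-ribosyl)ation with [3H]-NAD+/NAD donor was run in Ni flash plates in Tris/HCl pH 7.4 buffer with DTT and MgCl2, 120 min at room temperature, then stopped with excess NAD and scintillation-counted. Blank-corrected cpm was expressed as % of enzyme control, and IC50 was linearly interpolated and reported as pIC50.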

How did the minimal effective concentration (PC3 cells) turn out when `Cc1cc2ccc(C(C)(C#N)C3CCc4ccc(Br)cc43)cc2[nH]c1=O` (stereo not drawn) [Compound 249] was run?
Its minimal effective concentration is 0.178 µM.

What about the IC50 (TANK-2 enzyme) of the same compound?
The IC50 was 2.51 µM.

Which minimal effective concentration (PC3 cells) does the source give for `Cc1cc2ccc(C(C)(C#N)C3CCc4ccc(C#N)cc43)cc2[nH]c1=O` (stereo not drawn) [Compound 250] here?
Its minimal effective concentration is 0.316 µM.

And the IC50 (TANK-2 enzyme)?
Its IC50 is 0.398 µM.

For `C=C(C)c1cccc(CC(C)(C#N)c2ccc3cc(CC)c(=O)[nH]c3c2)c1` (stereo not drawn) [Compound 254], which minimal effective concentration (PC3 cells) is on record?
Its minimal effective concentration is 1 µM.

What about the IC50 (TANK-2 enzyme) of the same compound?
Its IC50 is 0.251 µM.

With `CCc1cc2ccc(C(C#N)(CC)Cc3cccc(C#N)c3)cc2[nH]c1=O` (stereo not drawn) [Compound 265] as the compound, how does the minimal effective concentration (PC3 cells) read?
The minimal effective concentration was 1 µM.

And the IC50 (TANK-2 enzyme)?
Its IC50 is 0.1 µM.

How did the minimal effective concentration (PC3 cells) turn out when `CCc1cc2ccc(C(C)(C#N)Cc3cc(F)cc(C#N)c3)cc2[nH]c1=O` (stereo not drawn) [Compound 266] was run?
The minimal effective concentration was 0.316 µM.

And the IC50 (TANK-2 enzyme)?
Its IC50 is 0.0251 µM.

Which minimal effective concentration (PC3 cells) does the source give for `CCc1cc2ccc(C(C#N)(CC)Cc3cccc(F)c3)cc2[nH]c1=O` (stereo not drawn) [Compound 270] here?
The minimal effective concentration was 3.16 µM.

And the IC50 (TANK-2 enzyme)?
Its IC50 is 0.316 µM.

`Cc1cc2ccc(C(C)(C#N)CCCCOc3ccccc3)cc2[nH]c1=O` (stereo not drawn) [Compound 272] was tested. Which minimal effective concentration (PC3 cells) did it give?
The minimal effective concentration was 1 µM.

And the IC50 (TANK-2 enzyme)?
Its IC50 is 0.501 µM.

Which minimal effective concentration (PC3 cells) does the source give for `Cc1cc2ccc(C(C)(C#N)Cc3cc(F)cc(F)c3)cc2[nH]c1=O` (stereo not drawn) [Compound 282] here?
Its minimal effective concentration is 3.16 µM.

What about the IC50 (TANK-2 enzyme) of the same compound?
The IC50 was 0.794 µM.

What does the source list for `CCc1cc2ccc(C(C)(C#N)Cc3cc(C)cc(Br)c3)cc2[nH]c1=O` (stereo not drawn) [Compound 284]?
minimal effective concentration (PC3 cells): 0.316 µM; IC50 (TANK-2 enzyme): 0.501 µM

Which results are given for `CCc1cc2ccc(C(C#N)(CC)Cc3cccc(OC)c3)cc2[nH]c1=O` (stereo not drawn) [Compound 287]?
minimal effective concentration (PC3 cells): 0.316 µM; IC50 (TANK-2 enzyme): 1 µM

For `CCc1cc2ccc(C(C)(C#N)CN(C)CCc3cn(C)c4ccccc34)cc2[nH]c1=O` (stereo not drawn) [Compound 303], which minimal effective concentration (PC3 cells) is on record?
The minimal effective concentration was 10 µM.

What about the IC50 (TANK-2 enzyme) of the same compound?
Its IC50 is 0.126 µM.

How did the minimal effective concentration (PC3 cells) turn out when `Cc1cc2ccc(C(C)(C#N)Cc3cccc(Oc4ccccn4)c3)cc2[nH]c1=O` (stereo not drawn) [Compound 304] was run?
The minimal effective concentration was 0.1 µM.

And the IC50 (TANK-2 enzyme)?
Its IC50 is 1 µM.

Which results are given for `CCOc1cc(N(C)C)nc(CC(C)(C#N)c2ccc3cc(CC)c(=O)[nH]c3c2)n1` (stereo not drawn) [Compound 312]?
minimal effective concentration (PC3 cells): 1 µM; IC50 (TANK-2 enzyme): 0.1 µM

How did the minimal effective concentration (PC3 cells) turn out when `CCOc1cc(C#N)nc(CC(C)(C#N)c2ccc3cc(CC)c(=O)[nH]c3c2)n1` (stereo not drawn) [Compound 315] was run?
Its minimal effective concentration is 1 µM.

What about the IC50 (TANK-2 enzyme) of the same compound?
The IC50 was 0.1 µM.

With `CCc1cc2ccc(C(C#N)(CC)Cc3nc(C#N)cc(OC)n3)cc2[nH]c1=O` (stereo not drawn) [Compound 316] as the compound, how does the minimal effective concentration (PC3 cells) read?
Its minimal effective concentration is 3.16 µM.

And the IC50 (TANK-2 enzyme)?
The IC50 was 0.126 µM.

How did the minimal effective concentration (PC3 cells) turn out when `CCc1cc2ccc(C(C#N)(CC)Cc3nc(OC)cc(OC)n3)cc2[nH]c1=O` (stereo not drawn) [Compound 321] was run?
Its minimal effective concentration is 0.316 µM.

What about the IC50 (TANK-2 enzyme) of the same compound?
The IC50 was 0.158 µM.

Which results are given for `CCc1cc2ccc(C(C)(C#N)Cc3ccnc(C#N)c3)cc2[nH]c1=O` (stereo not drawn) [Compound 324]?
minimal effective concentration (PC3 cells): 1 µM; IC50 (TANK-2 enzyme): 0.02 µM

How did the minimal effective concentration (PC3 cells) turn out when `CCc1cc2ccc(C(C)(C#N)Cc3cc(C)nc(Cl)c3)cc2[nH]c1=O` (stereo not drawn) [Compound 326] was run?
The minimal effective concentration was 3.16 µM.

What about the IC50 (TANK-2 enzyme) of the same compound?
Its IC50 is 0.398 µM.

How did the minimal effective concentration (PC3 cells) turn out when `CCc1cc2ccc(C(C)(C#N)Cc3cccc(F)n3)cc2[nH]c1=O` (stereo not drawn) [Compound 331] was run?
The minimal effective concentration was 0.1 µM.

And the IC50 (TANK-2 enzyme)?
The IC50 was 0.0794 µM.

Which minimal effective concentration (PC3 cells) does the source give for `CCc1cc2ccc([C@](C)(C#N)Cc3cc(F)cc(F)c3)cc2[nH]c1=O` [Compound 333] here?
Its minimal effective concentration is 10 µM.

What about the IC50 (TANK-2 enzyme) of the same compound?
The IC50 was 0.0794 µM.

With `CCc1cc2ccc(C(C)(C#N)Cc3ccc(C(F)(F)F)nc3C)cc2[nH]c1=O` (stereo not drawn) [Compound 340] as the compound, how does the minimal effective concentration (PC3 cells) read?
The minimal effective concentration was 10 µM.

And the IC50 (TANK-2 enzyme)?
Its IC50 is 0.794 µM.

Which minimal effective concentration (PC3 cells) does the source give for `CCc1cc2ccc(C(C)(C#N)Cc3ccnc(Cl)c3)cc2[nH]c1=O` (stereo not drawn) [Compound 341] here?
Its minimal effective concentration is 10 µM.

What about the IC50 (TANK-2 enzyme) of the same compound?
Its IC50 is 0.0794 µM.

With `CCc1cc2ccc(C(C#N)(CC)Cc3cccc(C#N)n3)cc2[nH]c1=O` (stereo not drawn) [Compound 342] as the compound, how does the minimal effective concentration (PC3 cells) read?
The minimal effective concentration was 3.16 µM.

What about the IC50 (TANK-2 enzyme) of the same compound?
Its IC50 is 0.0398 µM.

Which results are given for `CCc1cc2ccc(C(C)(C#N)CCOc3ccnc(SC)n3)cc2[nH]c1=O` (stereo not drawn) [Compound 348]?
minimal effective concentration (PC3 cells): 10 µM; IC50 (TANK-2 enzyme): 0.2 µM

With `CCc1cc2ccc(C(C)(C#N)CCOc3ncc(Br)cn3)cc2[nH]c1=O` (stereo not drawn) [Compound 349] as the compound, how does the minimal effective concentration (PC3 cells) read?
Its minimal effective concentration is 1 µM.

What about the IC50 (TANK-2 enzyme) of the same compound?
The IC50 was 0.2 µM.

Which minimal effective concentration (PC3 cells) does the source give for `CCc1cc2ccc(C(C)(C#N)Cc3nc(C)cc(OC)n3)cc2[nH]c1=O` (stereo not drawn) [Compound 371] here?
The minimal effective concentration was 0.316 µM.

And the IC50 (TANK-2 enzyme)?
The IC50 was 0.126 µM.

`CCc1cc2ccc(C(C)(C#N)CN3CCc4ccccc4C3)cc2[nH]c1=O` (stereo not drawn) [Compound 376] was tested. Which minimal effective concentration (PC3 cells) did it give?
The minimal effective concentration was 3.16 µM.

What about the IC50 (TANK-2 enzyme) of the same compound?
The IC50 was 0.2 µM.

What does the source list for `CCc1cc2ccc([C@](C)(C#N)C[C@H]3Cc4ccccc4O3)cc2[nH]c1=O` [Compound 397]?
minimal effective concentration (PC3 cells): 3.16 µM; IC50 (TANK-2 enzyme): 0.1 µM

Which results are given for `CCc1cc2ccc(C(C)(C#N)CC3Oc4ccccc4O3)cc2[nH]c1=O` (stereo not drawn) [Compound 398]?
minimal effective concentration (PC3 cells): 3.16 µM; IC50 (TANK-2 enzyme): 0.501 µM

With `CCc1cc2ccc(C(C)(C#N)Cc3cc(F)cc(F)c3)cc2[nH]c1=O` (stereo not drawn) [Compound 402] as the compound, how does the “EB1 pLAC” value (PC3 cells) read?
The value was 6.5.

What about the IC50 (TANK-2 enzyme) of the same compound?
Its IC50 is 0.126 µM.

Reference: patent US8778966B2, “Quinolinone derivatives as PARP and tank inhibitors” (Janssen Pharmaceutica, NV, priority 2007, dated 2014)
